This is an account of results in patent US20210268004A1, “COMPOSITION CONTAINING BECLOMETHASONE FOR THE PREVENTION AND THE TREATMENT OF BACTERIAL PROSTATITIS AND VAGINITIS” (SOFAR S.P.A., priority 2018, published 2021).

Where two headings read alike, the source gives them in different places.

The test system of series [1] is colorectal mucosa (epithelial tissue of the human colon reconstructed in 3D). To be noted: for recovery %: human. As to the method: The trial was conducted according to the OCSE TG 428-EU approved method used for percutaneous penetration.
Like in the first trial, the test was conducted at 37° C. and relative humidity >90%.
Like in the first phase, the test was conducted at 37° C. and relative humidity >90%.

For series [2] the following is noted: rectal treatment; cited from earlier work.

With `CCC(=O)OCC(=O)[C@@]1(OC(=O)CC)[C@@H](C)C[C@H]2[C@@H]3CCC4=CC(=O)C=C[C@]4(C)[C@@]3(Cl)[C@@H](O)C[C@@]21C` [BDP A, beclomethasone dipropionate], the “recovery Total” value in series [1] worked out at 149.81. The molecule further showed a recovery % in series [1] (24 h, 5 mg/mL) of 200%.
In the same order, the values of `CCC(=O)OCC(=O)[C@@]1(OC(=O)CC)[C@@H](C)C[C@H]2[C@@H]3CCC4=CC(=O)C=C[C@]4(C)[C@@]3(Cl)[C@@H](O)C[C@@]21C` [BDP B, beclomethasone dipropionate] are 133.53 and 89%.
For `CCC(=O)OCC(=O)[C@@]1(OC(=O)CC)[C@@H](C)C[C@H]2[C@@H]3CCC4=CC(=O)C=C[C@]4(C)[C@@]3(Cl)[C@@H](O)C[C@@]21C` [BDP C, beclomethasone dipropionate] the same measures were 112.53 and 75%.
For `CCC(=O)OCC(=O)[C@@]1(OC(=O)CC)[C@@H](C)C[C@H]2[C@@H]3CCC4=CC(=O)C=C[C@]4(C)[C@@]3(Cl)[C@@H](O)C[C@@]21C` [BDP D, beclomethasone dipropionate], the “recovery Total” value in series [1] was determined as 1339.30. The molecule further displayed a recovery % in series [1] (48 h, 200 mg/mL) of 22%.
`CCC(=O)OCC(=O)[C@@]1(OC(=O)CC)[C@@H](C)C[C@H]2[C@@H]3CCC4=CC(=O)C=C[C@]4(C)[C@@]3(Cl)[C@@H](O)C[C@@]21C` [BDP, beclomethasone dipropionate]: the adverse effects entry in series [2] was “almost without the adverse effects typical of steroids”.
